pEC50: −log10 of the molar value.

Experimental findings from patent publication US9580463B2 (BRISTOL-MYERS SQUIBB COMPANY, priority 2013, dated 2017) are described below.

For the test, the system named is HCV genotype 1b (Con1) replicon in HUH-7 cells. As to the kind of experiment: HCV replicon luciferase reporter assay, genotype 1b. The test is classed as cell-based. The settings on record: Hepatitis C virus, 72 h, genotype 1b replicon, 3 days incubation, read-out: LE_1b (EC50, range). The source says: An HCV replicon whole cell system was established as described by Lohmann V, Korner F, Koch J, Herian U, Theilmann L, Bartenschlager R., Science 285(5424):110-3 (1999) and modified to introduce a luciferase reporter, as first described by Krieger et al (Krieger N, Lohmann V, and Bartenschlager R, J. Virol. 75(10):4614-4624 (2001)). CDNA encoding a humanized form of the Renilla luciferase gene and a linker sequence fused directly to the 3′-end of the luciferase gene were introduced into the replicon construct using an Asc1 restriction site located in core, directly upstream of the neomycin marker gene. The adaptive mutation at position 1179 (serine to isoleucine) was also introduced (Blight K J, Kolykhalov, A A, Rice, C M, Science 290(5498):1972-1974). A stable cell line constitutively expressing this HCV replicon construct was generated by first linearizing plasmid DNAs with ScaI. RNA transcripts were synthesized in vitro using the T7 MegaScript transcription kit (Ambion, Austin, Tex.) according to manufacturer's directions. In vitro transcripts of the cDNA were transfected into the human hepatoma cell line, HUH-7. […] Resulting cell lines were characterized for positive and negative strand RNA production and protein production over time. […]
HCV replicon luciferase assays were developed to monitor the inhibitory effects of compounds described in the disclosure on HCV genotypes 1a and 1b viral replication. HUH-7 cells, constitutively expressing the HCV replicon, were grown in Dulbecco's Modified Eagle Media (DMEM) (Gibco-BRL) containing 10% Fetal calf serum (FCS) (Sigma) and 1 mg/mL G418 (Gibco-BRL). Compounds were serially diluted 3 folds in DMSO for a twenty-point titration and subsequently transferred to sterile 384-well tissue-culture treated plates (Corning cat #3571). The plates were then seeded with 50 μL of cells at a density of 3.0×10^3 cells/well in DMEM containing 4% FCS (final DMSO concentration at 0.5%). After 3 days incubation at 37° C., cells were analyzed for Renilla Luciferase activity using the EnduRen as substrate (Promega cat #E6485). The EnduRen substrate was diluted in DMEM and then added to the plates to a final concentration of 7.5 μM. The plates were incubated for 2 hrs at 37° C. and then read immediately for 30 seconds with Viewlux Imager (PerkinElmer) using a luminescence program. To assess cytotoxicity of compounds, CC50 values were generated by multiplexing the EnduRen-containing plates with Cell Titer-Blue (Promega, cat # G8082). Cell-Titer Blue (3 μL) was added to each well and incubated for 8 hrs at 37° C. The fluorescence signal from each well was read, with an excitation wavelength at 525/10 nm and an emission wavelength of 598/10 nm, using the Viewlux Imager.
The EC50 values for compounds were calculated by using a four-parameter logistic equation: y=A+((B−A)/(1+((C/x)^D))), where A and B denotes minimal and maximal % inhibition, respectively, C is the EC50, D is the hill slope and x represents compound concentration.
Take `CCOc1ccc2nc(C(F)(F)F)c(O[C@@H]3C[C@H]4C(=O)N[C@]5(C(=O)NS(=O)(=O)C6(C)CC6)C[C@H]5/C=C\CC[C@@H](C)C[C@@H](COC)[C@H](NC(=O)OC(C)(C)C(C)(F)F)C(=O)N4C3)nc2c1` [Compound 1052, 3,3-difluoro-2-methylbutan-2-yl ((2R,6S,7R,9R,13aS,14aR,16aS,Z)-2-((7-ethoxy-3-(trifluoromethyl)quinoxalin-2-yl)oxy)-7-(methoxymethyl)-9-methyl-14a-(((1-methylcyclopropyl)sulfonyl)carbamoyl)-5,16-dioxo-1,2,3,5,6,7,8,9,10,11,13a,14,14a,15,16,16a-hexadecahydrocyclopropa[e]pyrrolo[1,2-a][1,4]diazacyclopentadecin-6-yl)carbamate]: the pEC50 is 9.30 to 10.00.
With `CCOc1ccc2nc(C(F)(F)F)c(O[C@@H]3C[C@H]4C(=O)N[C@]5(C(=O)NS(=O)(=O)C6(C)CC6)C[C@H]5/C=C\CC[C@@H](C)C[C@@H](COC)[C@H](NC(=O)OC(C)(C)C)C(=O)N4C3)nc2c1` [Compound 1050, tert-butyl ((2R,6S,7R,9R,13aS,14aR,16aS,Z)-2-((7-ethoxy-3-(trifluoromethyl)quinoxalin-2-yl)oxy)-7-(methoxymethyl)-9-methyl-14a-(((1-methylcyclopropyl)sulfonyl)carbamoyl)-5,16-dioxo-1,2,3,5,6,7,8,9,10,11,13a,14,14a,15,16,16a-hexadecahydrocyclopropa[e]pyrrolo[1,2-a][1,4]diazacyclopentadecin-6-yl)carbamate] the figure was 9.30 to 10.00; with `CCOc1ccc2nc(C(F)(F)F)c(O[C@@H]3C[C@H]4C(=O)N[C@]5(C(=O)NS(=O)(=O)C6(C)CC6)C[C@H]5/C=C\CC[C@H](C)C[C@@H](COC)[C@H](NC(=O)OC(C)(C)C(F)(F)F)C(=O)N4C3)nc2c1` [Compound 1053, 1,1,1-trifluoro-2-methylpropan-2-yl ((2R,6S,7R,9S,13aS,14aR,16aS,Z)-2-((7-ethoxy-3-(trifluoromethyl)quinoxalin-2-yl)oxy)-7-(methoxymethyl)-9-methyl-14a-(((1-methylcyclopropyl)sulfonyl)carbamoyl)-5,16-dioxo-1,2,3,5,6,7,8,9,10,11,13a,14,14a,15,16,16a-hexadecahydrocyclopropa[e]pyrrolo[1,2-a][1,4]diazacyclopentadecin-6-yl)carbamate], 8.30 to 9.00; with `COC[C@@H]1C[C@H](C)CC/C=C\[C@@H]2C[C@@]2(C(=O)NS(=O)(=O)C2(C)CC2)NC(=O)[C@@H]2C[C@@H](Oc3nc(OC)c4c(OC)cccc4n3)CN2C(=O)[C@H]1NC(=O)OC(C)(C)C(F)(F)F` [Compound 1060, 1,1,1-trifluoro-2-methylpropan-2-yl ((2R,6S,7R,9R,13aS,14aR,16aS,Z)-2-((4,5-dimethoxyquinazolin-2-yl)oxy)-7-(methoxymethyl)-9-methyl-14a-(((1-methylcyclopropyl)sulfonyl)carbamoyl)-5,16-dioxo-1,2,3,5,6,7,8,9,10,11,13a,14,14a,15,16,16a-hexadecahydrocyclopropa[e]pyrrolo[1,2-a][1,4]diazacyclopentadecin-6-yl)carbamate], 8.30 to 9.00.
With `CCOc1cnc(O[C@@H]2C[C@H]3C(=O)N[C@]4(C(=O)NS(=O)(=O)C5(C)CC5)C[C@H]4/C=C\CC[C@H](C)C[C@@H](COC)[C@H](NC(=O)OC(C)(C)C)C(=O)N3C2)c2ccc(OC)cc12` [Compound 1063, tert-butyl ((2R,6S,7R,9S,13aS,14aR,16aS,Z)-2-((4-ethoxy-6-methoxyisoquinolin-1-yl)oxy)-7-(methoxymethyl)-9-methyl-14a-(((1-methylcyclopropyl)sulfonyl)carbamoyl)-5,16-dioxo-1,2,3,5,6,7,8,9,10,11,13a,14,14a,15,16,16a-hexadecahydrocyclopropa[e]pyrrolo[1,2-a][1,4]diazacyclopentadecin-6-yl)carbamate] the figure was 9.30 to 10.00; with `CCOc1cnc(O[C@@H]2C[C@H]3C(=O)N[C@]4(C(=O)NS(=O)(=O)C5(C)CC5)C[C@H]4/C=C\CC[C@H](C)C[C@@H](COC)[C@H](NC(=O)OC(C)(C)C(F)(F)F)C(=O)N3C2)c2ccc(OC)cc12` [Compound 1065, 1,1,1-trifluoro-2-methylpropan-2-yl ((2R,6S,7R,9S,13aS,14aR,16aS,Z)-2-((4-ethoxy-6-methoxyisoquinolin-1-yl)oxy)-7-(methoxymethyl)-9-methyl-14a-(((1-methylcyclopropyl)sulfonyl)carbamoyl)-5,16-dioxo-1,2,3,5,6,7,8,9,10,11,13a,14,14a,15,16,16a-hexadecahydrocyclopropa[e]pyrrolo[1,2-a][1,4]diazacyclopentadecin-6-yl)carbamate], 9.30 to 10.00; with `COC[C@@H]1C[C@H](C)CC/C=C\[C@@H]2C[C@@]2(C(=O)NS(=O)(=O)C2(C)CC2)NC(=O)[C@@H]2C[C@@H](Oc3nc(OC)c4c(OC)cccc4n3)CN2C(=O)[C@H]1NC(=O)OC(C)(C)C(C)(F)F` [Compound 1062, 3,3-difluoro-2-methylbutan-2-yl ((2R,6S,7R,9R,13aS,14aR,16aS,Z)-2-((4,5-dimethoxyquinazolin-2-yl)oxy)-7-(methoxymethyl)-9-methyl-14a-(((1-methylcyclopropyl)sulfonyl)carbamoyl)-5,16-dioxo-1,2,3,5,6,7,8,9,10,11,13a,14,14a,15,16,16a-hexadecahydrocyclopropa[e]pyrrolo[1,2-a][1,4]diazacyclopentadecin-6-yl)carbamate], 8.30 to 9.00.
With `COC[C@@H]1C[C@@H](C)CC/C=C\[C@@H]2C[C@@]2(C(=O)NS(=O)(=O)C2(C)CC2)NC(=O)[C@@H]2C[C@@H](Oc3nc(OC)c4c(OC)cccc4n3)CN2C(=O)[C@H]1NC(=O)OC(C)(C)C(F)(F)F` [Compound 1059, 1,1,1-trifluoro-2-methylpropan-2-yl ((2R,6S,7R,9S,13aS,14aR,16aS,Z)-2-((4,5-dimethoxyquinazolin-2-yl)oxy)-7-(methoxymethyl)-9-methyl-14a-(((1-methylcyclopropyl)sulfonyl)carbamoyl)-5,16-dioxo-1,2,3,5,6,7,8,9,10,11,13a,14,14a,15,16,16a-hexadecahydrocyclopropa[e]pyrrolo[1,2-a][1,4]diazacyclopentadecin-6-yl)carbamate] the figure was 6.21 to 7.46; with `CCOc1ccc2nc(C(F)(F)F)c(O[C@@H]3C[C@H]4C(=O)N[C@]5(C(=O)NS(=O)(=O)C6(C)CC6)C[C@H]5/C=C\CC[C@H](C)C[C@@H](COC)[C@H](NC(=O)OC(C)(C)C)C(=O)N4C3)nc2c1` [Compound 1049, tert-butyl ((2R,6S,7R,9S,13aS,14aR,16aS,Z)-2-((7-ethoxy-3-(trifluoromethyl)quinoxalin-2-yl)oxy)-7-(methoxymethyl)-9-methyl-14a-(((1-methylcyclopropyl)sulfonyl)carbamoyl)-5,16-dioxo-1,2,3,5,6,7,8,9,10,11,13a,14,14a,15,16,16a-hexadecahydrocyclopropa[e]pyrrolo[1,2-a][1,4]diazacyclopentadecin-6-yl)carbamate], 8.30 to 9.00; with `CCOc1cnc(O[C@@H]2C[C@H]3C(=O)N[C@]4(C(=O)NS(=O)(=O)C5(C)CC5)C[C@H]4/C=C\CC[C@@H](C)C[C@@H](COC)[C@H](NC(=O)OC(C)(C)C(F)(F)F)C(=O)N3C2)c2ccc(OC)cc12` [Compound 1066, 1,1,1-trifluoro-2-methylpropan-2-yl ((2R,6S,7R,9R,13aS,14aR,16aS,Z)-2-((4-ethoxy-6-methoxyisoquinolin-1-yl)oxy)-7-(methoxymethyl)-9-methyl-14a-(((1-methylcyclopropyl)sulfonyl)carbamoyl)-5,16-dioxo-1,2,3,5,6,7,8,9,10,11,13a,14,14a,15,16,16a-hexadecahydrocyclopropa[e]pyrrolo[1,2-a][1,4]diazacyclopentadecin-6-yl)carbamate], 9.30 to 10.00.
